In US20210260141A1, “MSC- AND EXOSOME-BASED IMMUNOTHERAPY” (EXOSTEM BIOTEC LTD., priority 2018, published 2021):

What was measured:
Assay type in all cases: cell-based
[1] = tested on: glioma stem cells (GSCs); assay: self-renewal of GSCs (secondary neurosphere formation) after coculture with MSCs or addition of their exosomes; settings: trans-well coculture
[2] = tested on: 3′ UTR of PD-L1; assay: PD-L1 3′ UTR luciferase reporter in GSCs cocultured with MSCs or treated with their exosomes; settings: pre-miR expressed in CH-, AD- and UC-MSCs, trans-well coculture with GSCs
[3] = tested on: PD-1 3′ UTR; assay: PD-1 3′ UTR luciferase reporter in HEK293 cells; settings: miR transfected in CH-MSCs; same whether cocultured or exosomes added
Procedure: PD-L1 is only half of the immune surveillance axis, its receptor PD-1 is expressed on immune cells and is required for cancer cell immune inhibition. […] CH-MSCs were also transfected with miR-124, miR-34, miR-30b and a combination of all three and then PD-1 expression was assessed. […] The effect was the same whether cells were cocultured, or whether exosomes were added. miR-34 has already been reported to target PD-L1, thus this miR and miR-124 are both effective at targeting both sides of the PD-L1/PD-1 axis.

[4] = miR expressed in CH- and UC-MSCs

miR-378: microRNA; pre-miR SEQ ID NO: 32, mature 5p SEQ ID NO: 33, 3p SEQ ID NO: 34 (CUCCUGACUCCAGGUCCUGUGUGUUACCUAGAAAUAGCACUGGACUUGGAGUCAGAAGGC; expressed or natural sequence; listed as Homo sapiens)
effect on self-renewal of GSCs ([1]; miR expressed in AD-MSCs): more pronounced effect
effect on self-renewal of GSCs [1, 4]: negligible effect
luciferase expression (PD-L1 reporter) [2]: decreased luciferase expression

miR-30b: microRNA; pre-miR SEQ ID NO: 13, mature 5p SEQ ID NO: 14, 3p SEQ ID NO: 15 (UGUAAACAUCCUACACUCAGCUGUAAUACAUGGAUUGGCUGGGAGGUGGAUGUUUACUUC; expressed or natural sequence; listed as Homo sapiens)
effect on PD-1 reduction (luciferase reporter) [3]: enhanced the PD-1 reduction

miR-29c: microRNA; pre-miR SEQ ID NO: 4, mature 5p SEQ ID NO: 5, 3p SEQ ID NO: 6 (ACCGAUUUCUCCUGGUGUUCAGAGUCUGUUUUUGUCUAGCACCAUUUGAAAUCGGUUA; expressed or natural sequence; listed as Homo sapiens)
effect on self-renewal of GSCs ([1]; miR expressed in AD-MSCs): more pronounced effect
effect on self-renewal of GSCs [1, 4]: negligible effect
luciferase expression (PD-L1 reporter) [2]: decreased luciferase expression

B1: miR-34: microRNA; pre-miR SEQ ID NO: 10, mature 5p SEQ ID NO: 11, 3p SEQ ID NO: 12 (nucleic acid, listed as Homo sapiens)
chain: UGGCAGUGUCUUAGCUGGUUGUUGUGAGCAAUAGUAAGGAAGCAAUCAGCAAGUAUACUGCCCUA
modifications: expressed or natural sequence
effect on PD-1 reduction (luciferase reporter) [3]: enhanced the PD-1 reduction
